Laboratory results published in ChEMBL document CHEMBL1149774, “Synthesis of N-(5,7-diamino-3-phenyl-quinoxalin-2-yl)-3,4,5-substituted anilines and N-[4[(5,7-diamino-3-phenylquinoxalin-2-yl)amino]benzoyl]-l-glutamic acid diethyl ester: evaluation of in vitro anti-cancer and anti-folate activities” (Eur J Med Chem, 2008).

How the values were obtained:
Format in all cases: functional
NCI-H23 = assay: Growth inhibition of human NCI-H23 cells after 48 hrs by SRB staining method; settings: NCI-H23, 48 h
NCI-H460 = assay: Growth inhibition of human NCI-H460 cells after 48 hrs by SRB staining method; settings: NCI-H460, 48 h
HCT-116 = assay: Growth inhibition of human HCT116 cells after 48 hrs by SRB staining method; settings: HCT-116, 48 h
KM12 = assay: Growth inhibition of human KM12 cells after 48 hrs by SRB staining method; settings: KM12, 48 h
SF-295 = assay: Growth inhibition of human SF295 cells after 48 hrs by SRB staining method; settings: SF-295, 48 h
SNB-19 = assay: Growth inhibition of human SNB19 cells after 48 hrs by SRB staining method; settings: SNB-19, 48 h
U-251 = assay: Growth inhibition of human U251 cells after 48 hrs by SRB staining method; settings: U-251, 48 h
M14 = assay: Growth inhibition of human M14 cells after 48 hrs by SRB staining method; settings: M14, 48 h
SK-MEL-28 = assay: Growth inhibition of human SK-MEL-28 cells after 48 hrs by SRB staining method; settings: SK-MEL-28, 48 h
SK-MEL-5 = assay: Growth inhibition of human SK-MEL-5 cells after 48 hrs by SRB staining method; settings: SK-MEL-5, 48 h
UACC-257 = assay: Growth inhibition of human UACC257 cells after 48 hrs by SRB staining method; settings: UACC-257, 48 h
UACC-62 = assay: Growth inhibition of human UACC62 cells after 48 hrs by SRB staining method; settings: UACC-62, 48 h
IGROV-1 = assay: Growth inhibition of human IGROV1 cells after 48 hrs by SRB staining method; settings: IGROV-1, 48 h
OVCAR-8 = assay: Growth inhibition of human OVCAR8 cells after 48 hrs by SRB staining method; settings: OVCAR-8, 48 h
SK-OV-3 = assay: Growth inhibition of human SKOV3 cells after 48 hrs by SRB staining method; settings: SK-OV-3, 48 h
786-0 = assay: Growth inhibition of human 786-0 cells after 48 hrs by SRB staining method; settings: 786-0, 48 h
A498 = assay: Growth inhibition of human A498 cells after 48 hrs by SRB staining method; settings: A498, 48 h
CAKI-1 = assay: Growth inhibition of human CAKI1 cells after 48 hrs by SRB staining method; settings: CAKI-1, 48 h
RXF 393 = assay: Growth inhibition of human RXF393 cells after 48 hrs by SRB staining method; settings: RXF 393, 48 h
TK-10 = assay: Growth inhibition of human TK10 cells after 48 hrs by SRB staining method; settings: TK-10, 48 h
PC-3 = assay: Growth inhibition of human PC3 cells after 48 hrs by SRB staining method; settings: PC-3, 48 h
DU-145 = assay: Growth inhibition of human DU145 cells after 48 hrs by SRB staining method; settings: DU-145, 48 h
MCF7 = assay: Growth inhibition of human MCF7 cells after 48 hrs by SRB staining method; settings: MCF7, 48 h
NCI/ADR-RES = assay: Growth inhibition of human NCI/ADR-RES cells after 48 hrs by SRB staining method
MDA-MB-231 = assay: Growth inhibition of human MDA-MB-231 cells after 48 hrs by SRB staining method; settings: MDA-MB-231, 48 h
MDA-MB-435 = assay: Growth inhibition of human MDA-MB-435 cells after 48 hrs by SRB staining method; settings: MDA-MB-435, 48 h
T47D = assay: Growth inhibition of human T47D cells after 48 hrs by SRB staining method
A549 = assay: Growth inhibition of human A549 cells after 48 hrs by SRB staining method; settings: A549, 48 h
SF-268 = assay: Growth inhibition of human SF268 cells after 48 hrs by SRB staining method; settings: SF-268, 48 h
K562 = assay: Growth inhibition of human K562 cells after 48 hrs by SRB staining method; settings: K562, 48 h
SR = assay: Growth inhibition of human SR cells after 48 hrs by SRB staining method
EKVX = assay: Growth inhibition of human EKVX cells after 48 hrs by SRB staining method
[1] = read-out: pLC50 (the source's name) (converted)

Nc1cc(N)c2nc(-c3ccccc3)c(Nc3ccc(Cl)c(Cl)c3)nc2c1
GI50 (NCI-H23): 19.1 µM | LC50 (NCI-H23): > 100 µM | TGI (NCI-H23; read-out: pTGI (converted)): 55 µM | GI50 (NCI-H460): 1.58 µM | LC50 (concentration killing 50% of cells) (NCI-H460): 56.2 µM | TGI (NCI-H460; read-out: pTGI (converted)): 22.9 µM | GI50 (HCT-116): 10.7 µM | LC50 (HCT-116): > 100 µM | TGI (HCT-116; read-out: pTGI (converted)): 52.5 µM | GI50 (KM12): 5.89 µM | LC50 (KM12): 87.1 µM | TGI (KM12; read-out: pTGI (converted)): 24.5 µM | GI50 (SF-295): 12.3 µM | LC50 (SF-295): 63.1 µM | TGI (SF-295; read-out: pTGI (converted)): 28.2 µM | GI50 (SNB-19): 12.9 µM | LC50 (SNB-19): 70.8 µM | TGI (SNB-19; read-out: pTGI (converted)): 30.2 µM | GI50 (U-251): 4.68 µM | LC50 (50% lethal concentration) (U-251): > 100 µM | TGI (U-251; read-out: pTGI (converted)): > 100 µM | GI50 (M14): 14.8 µM | LC50 (M14): > 100 µM | TGI (M14; read-out: pTGI (converted)): 60.3 µM | GI50 (SK-MEL-28): 16.2 µM | CC50 (SK-MEL-28; [1]): > 100 µM | TGI (SK-MEL-28; read-out: pTGI (converted)): 44.7 µM | GI50 (SK-MEL-5): 11 µM | LC50 (SK-MEL-5): 58.9 µM | TGI (SK-MEL-5; read-out: pTGI (converted)): 25.7 µM | GI50 (UACC-257): 11.5 µM | LC50 (UACC-257): 69.2 µM | TGI (UACC-257; read-out: pTGI (converted)): 28.2 µM | GI50 (UACC-62): 13.2 µM | LC50 (UACC-62): 67.6 µM | TGI (UACC-62; read-out: pTGI (converted)): 30.2 µM | GI50 (IGROV-1): 4.9 µM | LC50 (IGROV-1): 66.1 µM | TGI (IGROV-1; read-out: pTGI (converted)): 20.9 µM | GI50 (OVCAR-8): 5.13 µM | CC50 (OVCAR-8; [1]): > 100 µM | TGI (OVCAR-8; read-out: pTGI (converted)): 79.4 µM | GI50 (SK-OV-3): 13.8 µM | CC50 (SK-OV-3; [1]): 70.8 µM | TGI (SK-OV-3; read-out: pTGI (converted)): 31.6 µM | GI50 (786-0): 14.8 µM | CC50 (786-0; [1]): 93.3 µM | TGI (786-0; read-out: pTGI (converted)): 37.2 µM | GI50 (A498): 12 µM | CC50 (A498; [1]): 57.5 µM | TGI (A498; read-out: pTGI (converted)): 26.3 µM | GI50 (CAKI-1): 13.5 µM | CC50 (CAKI-1; [1]): 64.6 µM | TGI (CAKI-1; read-out: pTGI (converted)): 29.5 µM | GI50 (RXF 393): 6.17 µM | CC50 (RXF 393; [1]): > 100 µM | TGI (RXF 393; read-out: pTGI (converted)): 30.9 µM | GI50 (TK-10): 13.8 µM | CC50 (TK-10; [1]): 66.1 µM | TGI (TK-10; read-out: pTGI (converted)): 30.2 µM | GI50 (PC-3): 3.09 µM | CC50 (PC-3; [1]): 89.1 µM | TGI (PC-3; read-out: pTGI (converted)): 15.1 µM | GI50 (DU-145): 16.6 µM | CC50 (DU-145; [1]): 63.1 µM | TGI (DU-145; read-out: pTGI (converted)): 32.4 µM | GI50 (MCF7): 5.01 µM | CC50 (MCF7; [1]): 75.9 µM | TGI (MCF7; read-out: pTGI (converted)): 20.9 µM | GI50 (NCI/ADR-RES): 15.5 µM | CC50 (NCI/ADR-RES; [1]): > 100 µM | TGI (NCI/ADR-RES; read-out: pTGI (converted)): 55 µM | GI50 (MDA-MB-231): 5.75 µM | CC50 (MDA-MB-231; [1]): > 100 µM | TGI (MDA-MB-231; read-out: pTGI (converted)): 27.5 µM | GI50 (MDA-MB-435): 2.14 µM | CC50 (MDA-MB-435; [1]): 9.77 µM | TGI (MDA-MB-435; read-out: pTGI (converted)): 45.7 µM | GI50 (T47D): 11.5 µM | CC50 (T47D; [1]): 83.2 µM | TGI (T47D; read-out: pTGI (converted)): 30.9 µM | GI50 (A549): 10.7 µM | CC50 (A549; [1]): > 100 µM | TGI (A549; read-out: pTGI (converted)): 34.7 µM | GI50 (SF-268): 12 µM | CC50 (SF-268; [1]): 67.6 µM | TGI (SF-268; read-out: pTGI (converted)): 28.8 µM | GI50 (K562): 3.55 µM | CC50 (K562; [1]): > 100 µM | TGI (K562; read-out: pTGI (converted)): > 100 µM | GI50 (SR): 2.57 µM | CC50 (SR; [1]): > 100 µM | TGI (SR; read-out: pTGI (converted)): 15.5 µM | GI50 (EKVX): 3.8 µM | CC50 (EKVX; [1]): 47.9 µM | TGI (EKVX; read-out: pTGI (converted)): 16.2 µM
